Here are results for 17 compounds from ChEMBL document CHEMBL6071196, “Semisynthetic Tetramate-Containing Fungal Metabolites with Activity against Trichomonas vaginalis and Mycoplasma genitalium” (ACS Med Chem Lett, 2024).

In brackets after ≈: the same amount, converted by molar mass. Some results are limits rather than exact numbers.

Usually EC50 stands for the concentration at which the effect is half-maximal. By MIC90 is commonly meant an inhibitory concentration at the 90% level, which refers to growth in some studies and to a panel of isolates in others.

The test system of assay [1] is Trichomonas vaginalis. Briefly: Anti-trichomonal activity against Trichomonas vaginalis assessed as inhibition of parasite growth incubated for 18 hrs. The class given is functional, organism-based.
For assay [2], the system named is Mycoplasma genitalium. Briefly: Antibacterial activity against Mycoplasma genitalium G37C assessed as bacterial growth inhibition incubated for 7 days by phenol red reagent based microbroth dilution assay. The class given is functional. The settings on record: Mycoplasmoides genitalium, 168 h, time 7 day.

`CC1=C[C@H]2C[C@@H](C)CC[C@@H]2[C@@](C)(/C(O)=C2\C(=O)[C@@H](CO)N(C)C2=O)[C@H]1/C=C/[C@H](O)[C@H](C)O`: the EC50 in assay [1] was > 10 µM. In addition, the MIC90 in assay [2] was > 50 µM.
The matching figures for `C/C=C/C=C/[C@H]1C(C)=C[C@H]2C[C@@H](C)CC[C@@H]2[C@@]1(C)/C(O)=C1\C(=O)[C@@H](COCc2cn(CC3CCCC3)nn2)N(C)C1=O`: > 10 µM and 10.9 µM (≈ 6.29 µg/mL).
Take `C/C=C/C=C/[C@H]1C(C)=C[C@H]2C[C@@H](C)CC[C@@H]2[C@@]1(C)/C(O)=C1\C(=O)[C@H](COCc2cn(CCCCC)nn2)N(C)C1=O`: the EC50 in assay [1] is > 10 µM. Moreover, the MIC90 in assay [2] was found to be 22.1 µM (≈ 12.5 µg/mL).
Turning to `C/C=C/C=C/[C@H]1C(C)=C[C@H]2C[C@@H](C)CC[C@@H]2[C@@]1(C)/C(O)=C1\C(=O)[C@H](COCc2cn(CCCCO)nn2)N(C)C1=O`, the half-maximal effective concentration (EC50) in assay [1] is > 10 µM. The MIC90 in assay [2] came to 22.1 µM (≈ 12.5 µg/mL).
Consider `C/C=C/C=C/[C@H]1C(C)=C[C@H]2C[C@@H](C)CC[C@@H]2[C@@]1(C)/C(O)=C1/C(=O)N[C@@H](CO)C1=O`, for which, in assay [1], the EC50 was > 10 µM. Also, the MIC90 in assay [2] was 62.6 µM (≈ 25 µg/mL).
Take `C/C=C/C=C/[C@H]1C(C)=C[C@H]2C[C@@H](C)CC[C@@H]2[C@@]1(C)[C@@H](O)[C@H]1C(=O)N(C)[C@H](CO)[C@H]1O`: the EC50 in assay [1] was > 10 µM. Besides, in assay [2], the MIC90 is 30.1 µM (≈ 12.6 µg/mL).
For the compound `C/C=C/C=C/[C@H]1C(C)=C[C@H]2C[C@@H](C)CC[C@@H]2[C@@]1(C)/C(O)=C1\C(=O)[C@@H](COCc2cn(CCCCC)nn2)N(C)C1=O`, the EC50 in assay [1] is > 10 µM. Further, in assay [2], the MIC90 stood at 22.1 µM (≈ 12.5 µg/mL).
`CC1=C[C@H]2C[C@@H](C)CC[C@@H]2[C@@](C)(/C(O)=C2\C(=O)[C@H](COCc3cn(Cc4ccc(C(=O)O)cc4)nn3)N(C)C2=O)[C@H]1/C=C/C=C/C[C@@H](C)O`: the EC50 in assay [1] was > 10 µM. The MIC90 in assay [2] is > 37 µM.
As for `C/C=C/C=C/[C@H]1C(C)=C[C@H]2C[C@@H](C)CC[C@@H]2[C@@]1(C)/C(O)=C1\C(=O)[C@@H](COCc2cn(Cc3cc(C)cc(C)c3)nn2)N(C)C1=O`, in assay [1], the EC50 was > 10 µM. The MIC90 in assay [2] came out at 20.4 µM (≈ 12.5 µg/mL).
Consider `C#CCOC[C@@H]1C(=O)/C(=C(/O)[C@@]2(C)[C@@H](/C=C/C=C/C)C(C)=C[C@H]3C[C@@H](C)CC[C@@H]32)C(=O)N1C`, for which the EC50 in assay [1] is > 10 µM. For the same compound, the MIC90 in assay [2] is 14 µM (≈ 6.32 µg/mL).
For `C/C=C/C=C/[C@H]1C(C)=C[C@H]2C[C@@H](C)CC[C@@H]2[C@@]1(C)/C(O)=C1\C(=O)[C@H](COCc2cn(Cc3ccc(C(=O)O)cc3)nn2)N(C)C1=O`, in assay [1], the EC50 came out at 7.5 µM. The MIC90 in assay [2] was > 25 µM.
For the compound `C/C=C/C=C/[C@H]1C(C)=C[C@H]2C[C@@H](C)CC[C@@H]2[C@@]1(C)/C(O)=C1\C(=O)[C@@H](COCc2cn(CCO)nn2)N(C)C1=O`, in assay [1], the EC50 was > 10 µM. In assay [2], the MIC90 worked out at 23.2 µM (≈ 12.5 µg/mL).
The matching figures for `C/C=C/C=C/[C@H]1C(C)=C[C@H]2C[C@@H](C)CC[C@@H]2[C@@]1(C)/C(O)=C1\C(=O)[C@H](COCc2cn(Cc3cc(C)cc(C)c3)nn2)N(C)C1=O`: > 10 µM and 20.4 µM (≈ 12.5 µg/mL).
`CC1=C[C@H]2C[C@@H](C)CC[C@@H]2[C@@](C)(/C(O)=C2\C(=O)[C@H](CO)N(C)C2=O)[C@H]1/C=C/C=C/C[C@@H](C)O`: the 50% effective concentration (EC50) in assay [1] is > 10 µM. In addition, the MIC90 in assay [2] amounted to 6.8 µM (≈ 3.11 µg/mL).
`C/C=C/C=C/[C@H]1C(C)=C[C@H]2C[C@@H](C)CC[C@@H]2[C@@]1(C)/C(O)=C1\C(=O)[C@@H](COCc2cn(CC3CCCO3)nn2)N(C)C1=O` (some centres undefined): the EC50 in assay [1] is 5.4 µM. In assay [2], the MIC90 was determined as 12.5 µM (≈ 7.23 µg/mL).
As for `C/C=C/C=C/[C@H]1C(C)=C[C@H]2C[C@@H](C)CC[C@@H]2[C@@]1(C)/C(O)=C1\C(=O)[C@@H](COCc2ccccc2)N(C)C1=O`, in assay [1], the EC50 is > 10 µM. For the same compound, in assay [2], the MIC90 is 24.8 µM (≈ 12.5 µg/mL).
Consider `CC1=C[C@H]2C[C@@H](C)CC[C@@H]2[C@@](C)(/C(O)=C2\C(=O)[C@@H](CO)N(C)C2=O)[C@H]1/C=C/[C@@H](O)[C@@H](C)O`, for which the EC50 in assay [1] is > 10 µM. Further, the MIC90 in assay [2] is 12.5 µM (≈ 5.59 µg/mL).
